Reference: the RepoRT retention time repository

Test: Waters ACQUITY UPLC BEH C18, 100 × 2.1 mm, 1.7 µm, 40 °C, 0.3 to 0.4 mL/min, estimated dead time 0.63 min; A: water + 0.1% formic acid; B: methanol + 0.1% formic acid; gradient (min/%B) 0/0.5 0.1/0.5 10/80 10.1/99.5 12/99.5
Conditions: stereoisomer not certain

Compound | LC retention time [min]
O=C(O)CC(=O)OCC1OC(Oc2cc(O)c3c(=O)c(-c4ccc(O)cc4)coc3c2)C(O)C(O)C1O (configuration not stated) | 4.89
CCC1(O)C(=O)OCc2c1cc1n(c2=O)Cc2cc3c([N+](=O)[O-])cccc3nc2-1 (configuration not stated) | 5.87
CCCCC(=O)OC1C(CO)OC(OC2(CO)OC(CO)C(OC(C)=O)C2O)C(OC(=O)CCCC)C1OC(=O)CCCC (configuration not stated) | 8.56
CCCCCC=CC=CC(O)CCCCCCCC(=O)O (configuration not stated) | 9.79
COc1ccc2cc1Oc1ccc(cc1)CC1c3cc(c(OC)cc3CCN1C)Oc1c(OC)c(OC)cc3c1C(C2)N(C)CC3 (configuration not stated) | 4.19
O=C(O)CCC(NC(=O)Cc1c[nH]c2ccccc12)C(=O)O (configuration not stated) | 4.12
O=C(C=Cc1ccc(O)cc1)OC1C(Oc2c(-c3ccc(O)cc3)oc3cc(O)cc(O)c3c2=O)OC(CO)C(O)C1O (configuration not stated) | 5.32
COc1ccc2cc1Oc1ccc(cc1)CC1c3cc(c(OC)cc3CCN1C)Oc1c(OC)c(OC)c(OC)c3c1C(C2)N(C)CC3 (configuration not stated) | 4.41
CC(=O)OC1CCC2(C)C(=CCC3C2CCC2(C)C3CC3OC4(CCC(C)CN4)C(C)C32)C1 (configuration not stated) | 8.16
CSCCCCCCCN=C=S | 9.19
COc1cc(C=CC(=O)NC=Cc2ccc(O)cc2)ccc1O | 4.3
COc1cc2oc(-c3ccc(O)cc3)cc(=O)c2c(O)c1C1OC(CO)C(O)C(O)C1O (configuration not stated) | 4.08
OCC1OC(Oc2cc(O)cc3[o+]c(-c4ccc(O)c(O)c4)c(OC4OC(CO)C(O)C(O)C4OC4OCC(O)C(O)C4O)cc23)C(O)C(O)C1O (configuration not stated) | 2.49
COc1cc(C=CC(=O)O)cc(OC)c1 | 6.26
O=c1cc(-c2ccc(OC3OC(CO)C(O)C(O)C3O)c(O)c2)oc2cc(O)cc(O)c12 (configuration not stated) | 4.45
CC1(C(=O)O)CCC2(C)CCC3(C)C(=CCC4C5(C)CCC(OC6OC(C(=O)O)C(O)C(O)C6OC6OC(C(=O)O)C(O)C(O)C6O)C(C)(C)C5CCC43C)C2C1 (configuration not stated) | 6.45
COc1cc2c(cc1O)CC1c3c(cc(O)c(OC)c3-2)CCN1C (configuration not stated) | 3.35
O=S(=O)(O)ON=C(Cc1ccc(O)cc1)SC1OC(CO)C(O)C(O)C1O (configuration not stated) | 2
O=C(O)CCCC(=O)O | 2.53
C=CCC(=NOS(=O)(=O)O)SC1OC(CO)C(O)C(O)C1O (configuration not stated) | 1.77
CC(C)=CCc1c(O)c(-c2cc(-c3cc(=O)c4c(O)cc(O)cc4o3)ccc2O)c2oc(-c3ccc(O)cc3)cc(=O)c2c1O | 7.57

Compound | LC retention time [min]
COc1cc(O)c2c(c1)OC(c1ccc(O)c(-c3c(O)cc(O)c4c(=O)cc(-c5ccc(O)cc5)oc34)c1)CC2=O (configuration not stated) | 5.58
CC1CCC2(NC1)OC1CC3C4CCC5CC(OC6OC(CO)C(OC7OC(CO)C(O)C(OC8OCC(O)C(O)C8O)C7OC7OC(CO)C(O)C(O)C7O)C(O)C6O)CCC5(C)C4CCC3(C)C1C2C (configuration not stated) | 4.81
N#CC(OC1OC(COC2OC(CO)C(O)C(O)C2O)C(O)C(O)C1O)c1ccccc1 (configuration not stated) | 3.32
Nc1[nH]c(=O)[nH]c(=O)c1OC1OC(CO)C(OC2OC(CO)C(O)C(O)C2O)C(O)C1O (configuration not stated) | 2
CC(C)CC(N)C(=O)NC(CC(C)C)C(=O)O (configuration not stated) | 3.29
CC(CCC1C(CO)=CC(=O)CC1(C)C)OC1OC(CO)C(O)C(O)C1O (configuration not stated) | 3.81
COc1ccc(C=CC(=O)c2c(O)cc(OC3OC(CO)C(O)C(O)C3OC3OC(C)C(O)C(O)C3O)cc2O)cc1 (configuration not stated) | 5.42
O=C(O)C1C(O)CCC2CN3CCc4c([nH]c5ccccc45)C3CC21 (configuration not stated) | 3.82
COc1cc(C=CC(=O)OC2C(OC3C(Oc4cc(O)c5c(=O)cc(-c6ccc(O)c(OC)c6)oc5c4)OC(C(=O)O)C(O)C3O)OC(C(=O)O)C(O)C2O)ccc1O (configuration not stated) | 4.68
Cc1nccc2c1[nH]c1ccccc12 | 3.7
CS(=O)CCCCC#N (configuration not stated) | 2.21
Oc1cc(O)c2c(c1)OC(c1ccc(O)c(O)c1)C(O)C2c1c(O)cc(O)c2c1OC(c1ccc(O)c(O)c1)C(O)C2c1c(O)cc(O)c2c1OC(c1ccc(O)c(O)c1)C(O)C2 (configuration not stated) | 3.46
CCN1CC2(COC)CCC(O)C34C5CC6C(OC)CC(O)(C(CC23)C14)C5C6O (configuration not stated) | 2.91
C=CC1C(OC2OC(CO)C(O)C(O)C2O)OC=C2C(=O)N3CCC(=O)c4ccccc4NC(=O)C3CC21 (configuration not stated) | 3.77
NCCc1ccc(O)cc1 | 1.83
CS(=O)CCCCCCCCC(N)C(=O)O (configuration not stated) | 2.74
CCC1=NC2CC3(C(=O)N(OC)c4ccccc43)C3CC1C2CO3 (configuration not stated) | 3.99
CCC1C(=O)OCC1Cc1cncn1C (configuration not stated) | 2.4
COc1cc(-c2cc(=O)c3c(O)c(C4OC(CO)C(O)C(O)C4OC4OC(CO)C(O)C(O)C4O)c(O)cc3o2)ccc1O (configuration not stated) | 3.87
CCC1CN2CCc3cc(OC)c(OC)cc3C2CC1CC1NCCc2cc(OC)c(OC)cc21 (configuration not stated) | 3.41
CC(C)=CCc1cc(CCc2cc(O)c(CC=C(C)C)c(O)c2)ccc1O | 9.01

Compound | LC retention time [min]
COc1c(CO)c(OC2OC(COC3OCC(O)C(O)C3O)C(O)C(O)C2O)cc2c1C(=O)c1ccccc1C2=O (configuration not stated) | 5.23
OCC1OC(Oc2ccc(O)cc2)C(O)C(O)C1O (configuration not stated) | 1.88
CC(CSCC(NC(=O)CCC(N)C(=O)O)C(=O)O)C(=O)O (configuration not stated) | 2.39
CC(C)=CCc1cc(-c2coc3cc(O)ccc3c2=O)ccc1O | 7.24
COc1cccc2c(=O)c3ccoc3n(C)c12 | 5.59
CC=C1CN2C3CC1C(CO)C2Cc1c3[nH]c2cc(OC)ccc12 (configuration not stated) | 3.68
CC(C)CC(N)C(=O)NCC(=O)O (configuration not stated) | 2.08
CC(C)=CCc1cc(-c2coc3c(C(C=C(C)C)c4cc(-c5coc6cc(O)cc(O)c6c5=O)ccc4O)c(O)cc(O)c3c2=O)ccc1O (configuration not stated) | 8.22
C=CC1C(OC2OC(CO)C(O)C(O)C2O)OC=C(C(=O)OC)C1CC=O (configuration not stated) | 3.84
CN1C2CCC1CC(OC(=O)C(O)c1ccccc1)C2 (configuration not stated) | 3.15
CC=C1CN2CCC34C(=C(C=O)C1CC23)Nc1c(O)cccc14 (configuration not stated) | 3.38
CC1C(=O)OC2C(O)C34C5CC(C(C)(C)C)C36C(OC(=O)C6O)OC4(C(=O)O5)C12O (configuration not stated) | 5.36
COc1cc(CCN)ccc1O | 2.06
COc1ccc2c(c1)OC(OC1OC(CO)C(O)C(O)C1O)C(=O)N2OC (configuration not stated) | 4.1
CC(C)=CCC=C(C)C1CCC2(C)C1C(O)CC1C3(C)CCC(OC4OC(CO)C(O)C(O)C4O)C(C)(C)C3CCC12C (configuration not stated) | 7.63
COc1ccc(-c2coc3cc(OC4OC(COC(=O)CC(=O)O)C(O)C(O)C4O)cc(O)c3c2=O)cc1 (configuration not stated) | 6.06
CCC(C)C(N)C(=O)NC(CCC(N)=O)C(=O)O (configuration not stated) | 1.82
CCCC(=O)OC(CC(=O)[O-])C[N+](C)(C)C (configuration not stated) | 2.18
COc1ccc(-c2coc3cc(OC4OC(COC(=O)CC5CCNCC5)C(O)C(O)C4O)ccc3c2=O)cc1 (configuration not stated) | 4.67
C=C1CC(=CC)C(=O)OC2CCN3CC=C(COC(=O)C1(C)O)C23 (configuration not stated) | 3.45
CS(=O)C=CCCN=C=S (configuration not stated) | 3.77

Compound | LC retention time [min]
COc1cc(-c2[o+]c3cc(O)cc(OC4OC(CO)C(O)C(O)C4O)c3cc2OC2OC(COC3OC(C)C(OC(=O)C=Cc4ccc(O)cc4)C(O)C3O)C(O)C(O)C2O)cc(O)c1O (configuration not stated) | 3.76
COc1cc(CC2C(=O)OCC2Cc2ccc(OC)c(OC)c2)ccc1O (configuration not stated) | 6.63
O=c1c(O)c(-c2ccc(O)cc2)oc2cc(O)cc(O)c12 | 6.01
CC1OC(OCC2OC(Oc3cc(O)c4c(c3)OC(c3ccc(O)cc3)CC4=O)C(O)C(O)C2O)C(O)C(O)C1O (configuration not stated) | 4.28
CC(C)C(NC(=O)Cc1c[nH]c2ccccc12)C(=O)O (configuration not stated) | 5.61
CC(C)=CCCC(C)(O)C1CCC2(C)C1C(O)CC1C3(C)CCC(OC4OC(CO)C(O)C(O)C4OC4OC(CO)C(O)C(O)C4O)C(C)(C)C3CCC12C (configuration not stated) | 8.2
COc1cc2c3c(c1OC)-c1cc4c(cc1CC3N(C)CC2)OCO4 (configuration not stated) | 4.89
CC1CCC2C(C)C3C(CC4C5CC=C6CC(OC7OC(CO)C(O)C(O)C7OC7OC(C)C(O)C(O)C7O)CCC6(C)C5CCC43C)N2C1 (configuration not stated) | 4.94
COc1ccc2c(c1)[nH]c1c(C)nccc12 | 4.11
CCN1CC2(COC)C(O)CC(OC)C34C5CC6(O)C(OC)C(O)C(OC(C)=O)(C5C6OC(=O)c5ccccc5)C(C(OC)C23)C14 (configuration not stated) | 5.97
CC(CCC1(O)OC2CC3C4CC=C5CC(OC6OC(CO)C(OC7OC(C)C(O)C(O)C7O)C(O)C6OC6OC(C)C(O)C(O)C6O)CCC5(C)C4CCC3(C)C2C1C)COC1OC(CO)C(O)C(O)C1O (configuration not stated) | 5.05
COc1ccc(C(=O)OC2CC3CCC(C2)N3C)cc1OC (configuration not stated) | 3.95
O=C(O)CC(=O)OCC1OC(Oc2c(-c3ccc(O)c(O)c3)oc3cc(O)cc(O)c3c2=O)C(O)C(O)C1O (configuration not stated) | 4.22
O=C(O)c1cc(O)c2c(c1)C(C1c3cc(C(=O)O)cc(O)c3C(=O)c3c(OC4OC(CO)C(O)C(O)C4O)cccc31)c1cccc(OC3OC(CO)C(O)C(O)C3O)c1C2=O (configuration not stated) | 3.82
O=c1c(O)c(-c2ccc(O)cc2)oc2ccccc12 | 8.56
O=C(C=Cc1ccc(O)c(O)c1)NCCCCN(CCCNC(=O)C=Cc1ccc(O)cc1)C(=O)C=Cc1ccc(O)c(O)c1 | 5
COc1cc2c3cc1Oc1cc(ccc1O)CC1c4c(cc(OC)c(O)c4Oc4ccc(cc4)CC3N(C)CC2)CC[N+]1(C)C (configuration not stated) | 3.41
CS(=O)CCCCCCCC(N)C(=O)O (configuration not stated) | 2.28
CC1(C)CCC2(C(=O)O)CCC3(C)C(=CCC4C5(C)CC(O)C(O)C(C)(C)C5CCC43C)C2C1 (configuration not stated) | 9.77
